Assay results from article PMC9158266, “Ethacrynic acid is an inhibitor of human factor XIIIa” (BMC Pharmacology & Toxicology, 2022).

Target: T1, human factor XIIIa (FXIIIa) (Homo sapiens, UniProt P00488)
T1 construct: gene F13A1
T1 sequence (P00488 39-732): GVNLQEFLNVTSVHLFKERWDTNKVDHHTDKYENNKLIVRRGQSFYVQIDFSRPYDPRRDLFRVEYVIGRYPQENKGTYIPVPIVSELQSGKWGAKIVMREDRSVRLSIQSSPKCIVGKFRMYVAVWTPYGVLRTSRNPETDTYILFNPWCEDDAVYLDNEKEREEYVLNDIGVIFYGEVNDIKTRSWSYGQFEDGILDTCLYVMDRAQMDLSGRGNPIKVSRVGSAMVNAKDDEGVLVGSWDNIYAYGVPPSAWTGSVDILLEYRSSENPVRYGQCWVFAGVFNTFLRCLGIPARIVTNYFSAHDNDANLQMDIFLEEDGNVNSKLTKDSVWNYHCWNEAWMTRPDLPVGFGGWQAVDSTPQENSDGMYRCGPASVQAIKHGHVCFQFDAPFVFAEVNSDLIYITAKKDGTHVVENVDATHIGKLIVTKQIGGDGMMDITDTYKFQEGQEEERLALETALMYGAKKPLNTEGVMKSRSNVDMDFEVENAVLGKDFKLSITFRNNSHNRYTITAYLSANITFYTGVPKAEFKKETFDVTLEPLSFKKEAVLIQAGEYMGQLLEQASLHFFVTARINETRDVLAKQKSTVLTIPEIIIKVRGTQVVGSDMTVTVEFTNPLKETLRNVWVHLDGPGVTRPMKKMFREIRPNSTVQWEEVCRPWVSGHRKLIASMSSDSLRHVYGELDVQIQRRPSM
Assay: bisubstrate fluorescence trans-glutamination assay (dansylcadaverine / N,N-dimethylcasein)
Format: biochemical

IC50: 106 ± 32.5 µM
Compound: C=C(CC)C(=O)c1ccc(OCC(=O)O)c(Cl)c1Cl [compound 1, Ethacrynic acid]
